Experimental data reported in US20110009350A1, “Oil-in-Water Formulation of Avermectins” (priority 2005, published 2011).

Tests used:
[1] = Stability of Abamectin in water at various pH-values and temperatures, kept in the dark, HPLC; type: physicochemical
Description: The stability of Abamectin in water at various pH-values and temperatures was determined. 194.4 mg of Abamectin was dissolved in 10 ml methanol and 1 ml of the solution transferred to 100 ml of de-mineralised water and a part of this was transferred to a buffer solution. The sample was kept in the dark and the solution analysed using a HPLC.

[2] = Stability of Abamectin in water exposed to light (5000-6000 lux) at 25° C., HPLC; type: physicochemical
Description: The stability of Abamectin in water exposed to light at various pH-values was determined. 194.4 mg of Abamectin was dissolved in 10 ml methanol and 1 ml of the solution transferred to 100 ml of demineralised water and a part of this transferred to a buffer solution. The solution was exposed to light (5000-6000 lux) at 25° C. and analysed using a HPLC.

Abamectin
Abamectin concentration (ppm) ([1]; 25° C., 7 days, pH 4.0, dark): 3.130 ppm | Abamectin concentration (ppm) ([1]; 25° C., 7 days, pH 7.0, dark): 3.188 ppm | Abamectin concentration (ppm) ([1]; 25° C., 7 days, pH 9.0, dark): 3.005 ppm | Abamectin concentration (ppm) ([1]; 25° C., 14 days, pH 4.0, dark): 2.782 ppm | Abamectin concentration (ppm) ([1]; 25° C., 14 days, pH 7.0, dark): 3.040 ppm | Abamectin concentration (ppm) ([1]; 25° C., 14 days, pH 9.0, dark): 2.596 ppm | Abamectin concentration (ppm) ([1]; 25° C., 21 days, pH 4.0, dark): 2.566 ppm | Abamectin concentration (ppm) ([1]; 25° C., 21 days, pH 7.0, dark): 2.829 ppm | Abamectin concentration (ppm) ([1]; 25° C., 21 days, pH 9.0, dark): 2.380 ppm | Abamectin concentration (ppm) ([1]; 25° C., 28 days, pH 4.0, dark): 2.524 ppm | Abamectin concentration (ppm) ([1]; 25° C., 28 days, pH 7.0, dark): 2.676 ppm | Abamectin concentration (ppm) ([1]; 25° C., 28 days, pH 9.0, dark): 2.287 ppm | Abamectin concentration (ppm) ([1]; 25° C., Initial, pH 4.0, dark): 3.495 ppm | Abamectin concentration (ppm) ([1]; 25° C., Initial, pH 7.0, dark): 3.327 ppm | Abamectin concentration (ppm) ([1]; 25° C., Initial, pH 9.0, dark): 3.555 ppm | Abamectin concentration (ppm) ([1]; 50° C., 7 days, pH 4.0, dark): 1.054 ppm | Abamectin concentration (ppm) ([1]; 50° C., 7 days, pH 7.0, dark): 2.952 ppm | Abamectin concentration (ppm) ([1]; 50° C., 7 days, pH 9.0, dark): 1.265 ppm | Abamectin concentration (ppm) ([1]; 50° C., 14 days, pH 4.0, dark): 0.383 ppm | Abamectin concentration (ppm) ([1]; 50° C., 14 days, pH 7.0, dark): 2.780 ppm | Abamectin concentration (ppm) ([1]; 50° C., 14 days, pH 9.0, dark): 0.519 ppm | Abamectin concentration (ppm) ([1]; 50° C., 21 days, pH 4.0, dark): 0.123 ppm | Abamectin concentration (ppm) ([1]; 50° C., 21 days, pH 7.0, dark): 2.194 ppm | Abamectin concentration (ppm) ([1]; 50° C., 21 days, pH 9.0, dark): 0.205 ppm | Abamectin concentration (ppm) ([1]; 50° C., 28 days, pH 4.0, dark): 0.0609 ppm | Abamectin concentration (ppm) ([1]; 50° C., 28 days, pH 7.0, dark): 1.949 ppm | Abamectin concentration (ppm) ([1]; 50° C., 28 days, pH 9.0, dark): 0.0628 ppm | Abamectin concentration (ppm) ([1]; 50° C., Initial, pH 4.0, dark): 3.495 ppm | Abamectin concentration (ppm) ([1]; 50° C., Initial, pH 7.0, dark): 3.327 ppm | Abamectin concentration (ppm) ([1]; 50° C., Initial, pH 9.0, dark): 3.555 ppm | Abamectin concentration (ppm) ([2]; 7 days, pH 4.0): 2.923 ppm | Abamectin concentration (ppm) ([2]; 7 days, pH 7.0): 2.941 ppm | Abamectin concentration (ppm) ([2]; 7 days, pH 9.0): 3.163 ppm | Abamectin concentration (ppm) ([2]; 14 days, pH 4.0): 2.332 ppm | Abamectin concentration (ppm) ([2]; 14 days, pH 7.0): 2.529 ppm | Abamectin concentration (ppm) ([2]; 14 days, pH 9.0): 2.810 ppm | Abamectin concentration (ppm) ([2]; 21 days, pH 4.0): 1.961 ppm | Abamectin concentration (ppm) ([2]; 21 days, pH 7.0): 2.223 ppm | Abamectin concentration (ppm) ([2]; 21 days, pH 9.0): 2.360 ppm | Abamectin concentration (ppm) ([2]; 28 days, pH 4.0): 1.666 ppm | Abamectin concentration (ppm) ([2]; 28 days, pH 7.0): 2.034 ppm | Abamectin concentration (ppm) ([2]; 28 days, pH 9.0): 2.173 ppm | Abamectin concentration (ppm) ([2]; Initial, pH 4.0): 3.495 ppm | Abamectin concentration (ppm) ([2]; Initial, pH 7.0): 3.327 ppm | Abamectin concentration (ppm) ([2]; Initial, pH 9.0): 3.555 ppm
